The series is described as follows: Solubility of sirolimus in solvents / dispersion media. The format is physicochemical. The method, then: Solution 524 is a homogeneous mixture in which therapeutic substance 112 dissolves within a solvent or a solvent mixture. In one embodiment, solution 524 includes a high-capacity solvent 528 which is an organic solvent that has a high capacity to dissolve therapeutic substance 112. High capacity as utilized herein is defined as an ability to dissolve therapeutic substance 112 at concentrations greater than 500 mg of substance per milliliter of solvent. Examples of high capacity drug dissolving solvents for sirolimus and similar substances include but are not limited to tetrahydrofuran (THF), di-chloromethane (DCM), chloroform, and di-methyl-sulfoxide (DMSO). In addition to the high-capacity solvent, solution 524 may include an excipient 526 in order to assist in drug elution. In one embodiment, excipient 526 may be a surfactant such as but not limited to sorbitan fatty acid esters such as sorbitan monooleate and sorbitan monolaurate, polysorbates such as polysorbate 20, polysorbate 60, and polysorbate 80, cyclodextrins such as 2-hydroxypropyl-beta-cyclodextrin and 2,6-di-O-methyl-beta-cyclodextrin, sodium dodecyl sulfate, octyl glucoside, and low molecular weight poly(ethylene glycol)s. In another embodiment, excipient 526 may be a hydrophilic agent such as but not limited to salts such as sodium chloride and other materials such as urea, citric acid, and ascorbic acid. […]

For the molecule `CO[C@H]1C[C@@H]2CC[C@@H](C)[C@@](O)(O2)C(=O)C(=O)N2CCCC[C@H]2C(=O)O[C@H]([C@H](C)C[C@@H]2CC[C@@H](O)[C@H](OC)C2)CC(=O)[C@H](C)/C=C(\C)[C@@H](O)[C@@H](OC)C(=O)[C@H](C)C[C@H](C)/C=C/C=C/C=C/1C` [sirolimus], the solubility in hexane entry is given as “insoluble”.

The values are drawn from patent US8828474B2, “Apparatus and methods for loading a drug eluting medical device” (Medtronic Vascular, Inc., priority 2009, dated 2014).
